{"source": "paper PMC9959130", "about": "“Effects of Side Chain and Peptide Bond Modifications on the Targeting Properties of Stabilized Minigastrin Analogs” (Pharmaceuticals, 2023)", "key": {"[1]": {"tested_on": "A431-CCK2R and A431-mock xenografts", "assay": "Biodistribution in BALB/c nude mice bearing A431-CCK2R/A431-mock xenografts", "assay_type": "in vivo", "settings": "xenografted BALB/c nude mice, i.v., ~20 pmol, 4 h p.i. (indium-111 or lutetium-177), mean ± SD n = 4", "how_it_was_run": "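Female athymic BALB/c nude mice carrying subcutaneous A431-CCK2R and A431-mock tumors (~0.25 g) received ~20 pmol radiopeptide i.v. (150–200 kBq; ~0.5 MBq for gallium-68/lutetium-177 studies), n = 4. Tissues γ-counted at 1 h (gallium-68) or 4 h p.i. (indium-111/lutetium-177); expressed as % IA/g and tumor-to-organ ratios.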"}, "[2]": {"assay": "Metabolic studies in BALB/c mice (intact radiopeptide by radio-HPLC)", "assay_type": "in vivo", "settings": "i.v., 2 nmol, 10 min p.i., two animals per peptide", "protocol": "All animal experiments were approved by the Austrian Ministry of Science (BMWF-66.011/0075- WF/V/3b/2016) and performed in accordance with the Austrian Animal Protection Act. Metabolic studies characterizing the stability of selected radioligands against enzymatic degradation were carried out in 7 to 8 week old female BALB/c mice (Charles River, Sulzfeld, Germany). The mice (two animals for each peptide) were intravenously injected into a lateral tail vein with 5–10 MBq of the ^111In-labeled peptide derivatives, corresponding to 2 nmol total peptide. At the time point of 10 min p.i. the animals were euthanatized by cervical dislocation. A sample of urine and blood was immediately collected. Liver and kidneys were dissected, mixed with 20 mM HEPES buffer pH 7.3 (1:1, w/v) and homogenized using an Ultra-Turrax T8 homogenizer (IKA-Werke, Staufen, Germany) for 1 min. All samples taken were analyzed by analytical HPLC using the low-sensitivity loop for urine and the high-sensitivity loop for blood, liver and kidney. Before injection into the HPLC system, all samples except urine were treated with ACN and diluted with water as described for stability studies in human serum. The percentage of intact radiopeptide in the analyzed samples was calculated by integration of the different peaks found in the radiochromatogram using Chromeleon Dionex Software (Version 7.2.9.11323)."}}, "note": "Where a SMILES comes first, the peptide text is derived from it. [ ]: non-standard residue; d: D form. The star is where a group is joined. DOTA = O=C(O)CN1CCN(CC(=O)O)CCN(CC(=O)*)CCN(CC(=O)O)CC1; 1Nal = N[C@@H](Cc1cccc2ccccc12)C(=O)O; NMeNle = CCCC[C@H](NC)C(=O)O"}
{"smiles": "CCCC[C@@H](C(=O)N[C@@H](CC(=O)O)C(=O)N[C@@H](Cc1cccc2ccccc12)C(N)=O)N(C)C(=O)[C@H](Cc1c[nH]c2ccccc12)NC(=O)CNC(=O)[C@H](Cc1ccc(O)cc1)NC(=O)[C@H](C)NC(=O)[C@@H](CCCCN)NC(=O)CN1CCN(CC(=O)O)CCN(CC(=O)O)CCN(CC(=O)O)CC1", "note": "[[^111In]In-DOTA-[DLys^1]MGS5] [metal not drawn] ({DOTA}-[dK]AYGW[NMeNle]D[1Nal]-NH2)", "values": [{"measurement": "Uptake in kidneys", "setting": "[1]", "result": "20.67 ± 4.37", "unit": "%IA/g"}, {"measurement": "Intact radiopeptide in kidney", "setting": "[2]; kidney homogenate", "result": "20.6 ± 3.8", "unit": "%"}, {"measurement": "Intact radiopeptide in liver", "setting": "[2]; liver homogenate", "result": "82.5 ± 2.4", "unit": "%"}, {"measurement": "Intact radiopeptide in blood", "setting": "[2]", "result": "93.9 ± 1.2", "unit": "%"}, {"measurement": "Intact radiopeptide in urine", "setting": "[2]", "result": "5.8 ± 0.2", "unit": "%"}]}
